Results on 7 molecules are retold here after US9102621B2, “Acyl sulfonamide compounds” (Pfizer Limited, priority 2010, dated 2015).

pIC50: −log10 of the molar value. Where a name gives a salt, the structure may show the parent alone. Some results are limits rather than exact numbers.

In this test the target is T1, Nav1.7 (or SCN9A) channel (Homo sapiens, UniProt Q15858).
T1 construct: expressed in transfected cells
T1 sequence (Q15858 whole entry): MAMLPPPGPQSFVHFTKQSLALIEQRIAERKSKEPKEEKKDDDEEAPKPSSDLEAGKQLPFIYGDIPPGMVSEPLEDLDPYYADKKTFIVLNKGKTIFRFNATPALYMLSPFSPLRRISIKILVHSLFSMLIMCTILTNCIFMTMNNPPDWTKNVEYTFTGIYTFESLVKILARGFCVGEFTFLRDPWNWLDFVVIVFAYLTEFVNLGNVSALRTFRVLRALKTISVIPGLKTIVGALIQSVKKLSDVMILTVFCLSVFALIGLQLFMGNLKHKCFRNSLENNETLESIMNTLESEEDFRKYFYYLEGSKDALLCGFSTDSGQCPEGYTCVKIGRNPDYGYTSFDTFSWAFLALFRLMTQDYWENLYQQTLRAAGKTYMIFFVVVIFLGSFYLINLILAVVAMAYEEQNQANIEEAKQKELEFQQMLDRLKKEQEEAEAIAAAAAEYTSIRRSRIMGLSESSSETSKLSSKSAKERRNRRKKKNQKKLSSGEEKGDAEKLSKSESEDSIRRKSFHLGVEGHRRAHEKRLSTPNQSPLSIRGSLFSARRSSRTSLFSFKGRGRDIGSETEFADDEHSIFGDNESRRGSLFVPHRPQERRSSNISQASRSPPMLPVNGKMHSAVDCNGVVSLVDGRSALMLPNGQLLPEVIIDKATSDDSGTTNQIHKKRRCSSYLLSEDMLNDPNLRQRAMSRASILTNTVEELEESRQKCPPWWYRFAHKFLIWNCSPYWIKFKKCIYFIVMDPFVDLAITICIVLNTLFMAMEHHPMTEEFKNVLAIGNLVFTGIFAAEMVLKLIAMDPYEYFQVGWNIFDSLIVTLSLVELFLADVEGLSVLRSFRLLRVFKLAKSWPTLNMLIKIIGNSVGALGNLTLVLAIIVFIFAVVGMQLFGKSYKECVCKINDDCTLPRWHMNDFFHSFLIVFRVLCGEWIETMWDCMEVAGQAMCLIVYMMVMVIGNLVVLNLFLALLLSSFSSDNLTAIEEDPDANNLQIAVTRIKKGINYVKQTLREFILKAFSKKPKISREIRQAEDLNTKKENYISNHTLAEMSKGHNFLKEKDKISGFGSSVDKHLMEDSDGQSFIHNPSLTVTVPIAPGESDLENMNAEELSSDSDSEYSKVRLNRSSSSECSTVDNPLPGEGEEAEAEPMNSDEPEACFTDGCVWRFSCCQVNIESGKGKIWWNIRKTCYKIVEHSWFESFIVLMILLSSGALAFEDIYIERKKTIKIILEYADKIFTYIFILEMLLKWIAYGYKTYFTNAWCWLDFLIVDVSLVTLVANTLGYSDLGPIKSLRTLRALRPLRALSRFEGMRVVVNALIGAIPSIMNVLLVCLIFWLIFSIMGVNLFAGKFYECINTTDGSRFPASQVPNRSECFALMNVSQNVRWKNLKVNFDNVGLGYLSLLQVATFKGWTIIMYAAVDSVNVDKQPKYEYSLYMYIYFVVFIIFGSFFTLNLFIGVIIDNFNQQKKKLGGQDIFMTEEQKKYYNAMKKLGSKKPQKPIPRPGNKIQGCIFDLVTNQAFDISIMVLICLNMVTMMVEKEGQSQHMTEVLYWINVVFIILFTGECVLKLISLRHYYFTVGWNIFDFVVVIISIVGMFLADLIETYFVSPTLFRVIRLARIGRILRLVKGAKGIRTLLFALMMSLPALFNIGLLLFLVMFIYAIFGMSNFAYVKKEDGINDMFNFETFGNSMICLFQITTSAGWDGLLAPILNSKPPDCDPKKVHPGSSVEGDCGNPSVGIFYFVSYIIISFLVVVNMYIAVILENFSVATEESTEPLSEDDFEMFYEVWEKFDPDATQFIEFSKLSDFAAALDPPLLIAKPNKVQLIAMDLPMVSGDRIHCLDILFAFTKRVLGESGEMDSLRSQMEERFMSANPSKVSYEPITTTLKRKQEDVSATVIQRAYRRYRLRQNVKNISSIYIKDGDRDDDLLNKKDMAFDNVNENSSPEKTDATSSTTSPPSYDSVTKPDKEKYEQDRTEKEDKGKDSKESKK
Nature of the test: Nav1.7 (hSCN9A) channel block, PatchXpress whole-cell electrophysiology. The conditions noted are these: PatchXpress platform; HEK cells stably transfected with hSCN9A; estimated IC-50 calculated from single point % inhibition at V1/2; read-out: Nav1.7 EIC50. It is filed as cell-based. How it is done:
The ability of the compounds of formula (I) to block the Nav1.7 (or SCN9A) channel were measured using the assay described below.
Human Embryonic Kidney (HEK) cells were transfected with an hSCN9A construct using lipofectamine reagent (Invitrogen), using standard techniques. Cells stably expressing the hSCN9A constructs were identified by their resistance to G-418 (400 μg/ml). Clones were screened for expression using the whole-cell voltage-clamp technique.
HEK cells stably transfected with hSCN9A were maintained in DMEM medium supplemented with 10% heat-inactivated fetal bovine serum and 400 μg/ml G-418 in an incubator at 37° C. with a humidified atmosphere of 10% CO2. For HTS, cells were harvested from flasks by trypsinization and replated in an appropriate multi-well plate (typically 96 or 384 wells/plate) such that confluence would be achieved within 24 hours of plating. For electrophysiological studies, cells were removed from the culture flask by brief trypsinization and re-plated at low density onto glass cover slips. Cells were typically used for electrophysiological experiments within 24 to 72 hours after plating.
Cover slips containing HEK cells expressing hSCN9A were placed in a bath on the stage of an inverted microscope and perfused (approximately 1 ml/minutes) with extracellular solution of the following composition: 138 mM NaCl, 2 mM CaCl2, 5.4 mM KCl, 1 mM MgCl2, 10 mM glucose, and 10 mM HEPES, pH 7.4, with NaOH. […] The osmolarity of the extracellular and intracellular solutions was 300 mOsm/kg and 295 mOsm/kg, respectively. All recordings were made at room temperature (22-24° C.) using AXOPATCH 200B amplifiers and PCLAMP software (Axon Instruments, Burlingame, Calif.).
hSCN9A currents in HEK cells were measured using the whole-cell configuration of the patch-clamp technique (Hamill et al., 1981). Uncompensated series resistance was typically 2 to 5 mega ohms and >85% series resistance compensation was routinely achieved. As a result, voltage errors were negligible and no correction was applied. Current records were acquired at 20 to 50 KHz and filtered at 5 to 10 KHz.
HEK cells stably transfected with hSCN9A were viewed under Hoffman contrast optics and placed in front of an array of flow pipes emitting either control or compound-containing extracellular solutions. All compounds were dissolved in dimethyl sulfoxide to make 10 mM stock solutions, which were then diluted into extracellular solution to attain the final concentrations desired. […] The voltage-dependence of inactivation was determined by applying a series of depolarizing prepulses (8 sec long in 10 mV increments) from a negative holding potential. The voltage was then immediately stepped to 0 mV to assess the magnitude of the sodium current. Currents elicited at 0 mV were plotted as a function of prepulse potential to allow estimation of the voltage at which 50% of the channels were inactivated (midpoint of inactivation or V1/2). Compounds were tested for their ability to inhibit hSCN9A sodium channels by activating the channel with a 20 msec voltage step to 0 mV following an 8 second conditioning prepulse to the empirically determined V1/2. Compound effect (% inhibition) was determined by difference in current amplitude before and after application of test compounds. […] Inhibition values <20% and >80% were excluded from the calculation.
Electrophysiological assays were conducted with PatchXpress 7000 hardware and associated software (Molecular Devices Corp). All assay buffers and solutions were identical to those used in conventional whole-cell voltage clamp experiments described above. hSCN9A cells were grown as above to 50%-80% confluency and harvested by trypsinization. Trypsinized cells were washed and resuspended in extracellular buffer at a concentration of 1×10^6 cells/ml. The onboard liquid handling facility of the PatchXpress was used for dispensing cells and application of test compounds. […]
For the molecule `CC(C)Oc1ncc(OCc2cc(F)c(C(=O)NS(C)(=O)=O)cc2Cl)cn1` [Example 58, 5-Chloro-2-fluoro-4-{[(2-isopropoxypyrimidin-5-yl)oxy]methyl}-N-(methylsulfonyl)benzamide], the pIC50 is 5.16.
Take `CS(=O)(=O)NC(=O)c1cc(Cl)c(COc2cnc(C3CC3)c(OC(F)F)c2)cc1F` [Example 59, 5-Chloro-4-({[6-cyclopropyl-5-(difluoromethoxy)pyridin-3-yl]oxy}methyl)-2-fluoro-N-(methylsulfonyl)benzamide diethylamine salt]: the pIC50 was 6.45.
As for `CS(=O)(=O)NC(=O)c1cc(F)c(COc2ncc(Cl)cc2Cl)cc1F` [Example 60, 4-{[(3,5-dichloropyridin-2-yl)oxy]methyl}-2,5-difluoro-N-(methylsulfonyl)benzamide], the pIC50 is below 5.52.
On to `CS(=O)(=O)NC(=O)c1cc(F)c(COc2cc(C(F)(F)F)nc(C(F)(F)F)c2)cc1F` [Example 61, 4-({[2,6-bis(trifluoromethyl)pyridin-4-yl]oxy}methyl)-2,5-difluoro-N-(methylsulfonyl)benzamide], for which the pIC50 is 5.74.
`CS(=O)(=O)NC(=O)c1ccc(COc2cc(C(F)(F)F)c(Cl)cn2)cc1` [Example 62, 4-({[5-Chloro-4-(trifluoromethyl)pyridin-2-yl]oxy}methyl)-N-(methylsulfonyl)benzamide]: the pIC50 was 5.47.
Take `CS(=O)(=O)NC(=O)c1ccc(COc2ccc(Cl)cn2)cc1` [Example 63, 4-{[(5-Chloropyridin-2-yl)oxy]methyl}-N-(methylsulfonyl)benzamide]: the pIC50 was 5.18.
As for `CS(=O)(=O)NC(=O)c1cc(F)c(OCc2ccc(Cl)cn2)cc1F` [Example 64, 4-[(5-Chloropyridin-2-yl)methoxy]-2,5-difluoro-N-(methylsulfonyl)benzamide diethylamine salt], the pIC50 is below 6.00.
